The results in this text go back to patent US20230285372A1, “Pharmaceutical use of (E)-3-arylheterocyclylprop-2-enoic acid derivatives” (MEDCURIUS INC., priority 2020, published 2023).

Assay [1] relates to tyrosine hydroxylase (TH). In words: Tyrosine hydroxylase (TH) level in midbrain, immunohistochemistry, MPTP mouse. The note with it: medium and high dosage of I-5 (10 and 20 mg/kg bid); vs model group. In kind it is in vivo.
Procedure: Male C57 mouse were screened for their motor function by a mouse rod-rotating test, and unqualified ones were excluded from the test. […] MPTP was injected subcutaneously every 4 days in the model group and the drug administration group with a dosage of 25 mg/kg for 40 consecutive days. Each group of I-5 was administered once a day at 8:00 am and 8:00 pm (by intragastric administration), twice in total. The control group and model group were given the corresponding solvent once a day in the morning (by intragastric administration) while the positive control group (L-DOPA) was given L-DOPA once a day in the morning (by intragastric administration). The intragastric volume was 0.1 ml/10 g body weight, and the behavior test was started 40 days later. […] The storage time of the prepared liquid medicine was not more than 24 hours.
Tissues from all the animals were collected on the second day after the end of the behavioral experiment. […] The level of tyrosine hydroxylase (TH), a marker protein of dopaminergic neurons, was detected by immumohistochemistry, and α-synuclein protein level and phosphorylation level of the protein were detected by Western blot.
Another assay has as its system p-synuclein. Nature of the assay: Phosphorylated α-synuclein (p-synuclein) level in midbrain, Western blot, MPTP mouse. In kind it is in vivo. The conditions noted are these: vs model group. From the text:
The core pathological change of Parkinson's disease is the loss of dopaminergic neurons. Tyrosine hydroxylase (TH), the rate-limiting enzyme in dopamine synthesis, is the landmark protein of the dopaminergic neurons. Therefore, the decrease in its level indicates the loss of the dopaminergic neurons. A key protein for the occurrence and development of Parkinson's disease is α-synuclein protein, and the abnormal modification (hyperphosphorylation) of this protein can inhibit microtubule polymerization, enhance oxidative stress, and thus accelerate the death of the dopaminergic neurons.
(§1) Male C57 mouse were screened for their motor function by a mouse rod-rotating test, and unqualified ones were excluded from the test. […] MPTP was injected subcutaneously every 4 days in the model group and the drug administration group with a dosage of 25 mg/kg for 40 consecutive days. Each group of I-5 was administered once a day at 8:00 am and 8:00 pm (by intragastric administration), twice in total. […] The intragastric volume was 0.1 ml/10 g body weight, and the behavior test was started 40 days later. […] The storage time of the prepared liquid medicine was not more than 24 hours.
Tissues from all the animals were collected on the second day after the end of the behavioral experiment. Hearts from six animals in each group were perfused and fixed with paraformaldehyde for pathological analysis of paraffin sections. Brain tissue of the remaining animals was separated on ice, and brain areas (midbrain) related to Parkinson's disease were collected. After being frozen with liquid nitrogen, they were stored in a refrigerator at −80° C. for protein analysis. The level of tyrosine hydroxylase (TH), a marker protein of dopaminergic neurons, was detected by immumohistochemistry, and α-synuclein protein level and phosphorylation level of the protein were detected by Western blot.
A general note: Immunoblotting shows a protein as a band on a membrane.

For assay [2], the system named is MPTP-induced Parkinson's disease mouse. In words: Rotarod test, MPTP-induced Parkinson's disease mouse. The note with it: vs model group. In kind it is in vivo. The protocol:
as §1
On the first day, the mouse acclimated to a rotating speed of 5 rpm for two times, each time for 5 minutes. On the second day, the rotarod turned at a speed of 10 rpm, the mouse acclimated to the speed for two times, each time for 5 minutes. On the third day, the rotarod turned at a speed of 15 rpm, the mouse acclimated to the speed for two times, each time for 3 minutes. On the fourth day, a behavioral test was started. The rotarod turned at a speed of 15 rpm for a period of 3 minutes. The time mouse spent on the rotarod (fall latency) was taken as an index for evaluation of their motor coordination. The test was repeated three times for each animal, with an interval of 30 minutes to eliminate the interference of exercise fatigue on the motion ability of animals.
(In general: In the rotarod test animals must keep their balance on a rotating rod.)

The next assay deals with HO-1. In words: HO-1 expression in HT-22 cytoplasm, Western Blot. Format: cell-based, mouse. The note with it: HT-22 cells, 1.25 μM and 0.625 μM, 24 hours, vs control group. From the text: As a transcription factor, Nrf2 needs to enter the nucleus and combine with ARE sequence to play a role in transcriptional activation. Therefore, Nrf2 protein level in the nucleus is an important prerequisite for the activation of Nrf2 signaling pathway. NQO-1 and HO-1 are target genes regulated by Nrf2, and the increase of their protein levels is an important sign of activation of the Nrf2 signaling pathway.
HT-22 cells in logarithmic growth phase were selected, the culture medium was discarded, the cells were digested with 0.25% Trypsin containing EDTA, and cell suspension was made. Cell density was adjusted to 50000/ml with DMEM/F12 medium (containing 10% FBS and 1% double antibody) and it was inoculated to 6-well plate, with 2000 μL/well, the number of cells per well was 100, 000, and the cells were cultured in a cell incubator at 37° C. in an atmosphere containing 5% CO2 for 24 hours. Then, the medium of each well was replaced with new 1980 μL DMEM/F12 medium. […] After 24 hours, the cells were collected, nuclear protein and cytoplasmic protein were extracted, and the level of Nrf2 in the nucleus and the expression of NQO-1 and HO-1 in cytoplasm were detected by Western Blot.

For `N#C/C=C/c1ccccn1` [Compound I-5], the “TH positive area of substantia nigra” value in assay [1] was “significantly increase the TH positive area”. Besides, the “p-synuclein protein level in the midbrain” value was “significantly lower than that in the model group” in the assay on p-synuclein (I-5 10 mg/kg, p<0.01) and “significantly lower than that in the model group” in the assay with p-synuclein (I-5 20 mg/kg, p<0.05). Also, the “fall latency in the Rotarod test” value in assay [2] (5 mg/kg bid intragastric, p>0.05) was “no significant difference”; in assay [2] (medium and high dosage groups (10 and 20 mg/kg bid), p<0.0001), “significantly prolonged”. In addition, in the assay with HO-1, the “protein level of HO-1” value is given as “increased significantly”.
